Data reported in patent EP3265461B1, “VERBASCOSIDE DERIVATIVES” (Croda Italiana S.p.A., priority 2015, dated 2016).

Key:
Stability in blood, HPLC = format: in vitro ADME
Method: (§1) The stability of the compounds of formula (I) was measured under physiological conditions.
(§2) The stability measurement was conducted by means of analytic HPLC techniques with a UV detector at 330 nm. The half-life is reported (in hours).

[1] = tested on: platelet aggregation (PA); experiment: Phase II study: ADP-induced platelet aggregation by light transmission aggregometry; format: in vivo, human; details: platelets stimulated with 5 µM ADP
Method: (§3) A randomized, double-blind Phase II study was conducted to evaluate verbascoside activity in modulating the platelet aggregation (PA) values on subjects with at least one cardiovascular risk factor, selected from: age over 65 years, diabetes mellitus, hypertension, smoke, hyperlipidemia, waist circumference greater than 102 cm in men or 88 cm in women. Patients under pharmacological treatment with platelet antiaggregants (aspirin, clopidogrel, ticlopidine, prasugrel, ticagrelor), with anticoagulants (e.g. warfarin) or with oral contraceptives, were excluded. Other exclusion criteria were: events of myocardial infarction, coronary revascularization (percutaneous or surgical), infarction, temporary ischemic attack, peripheral vascular pathology, and the consumption of corticosteroids and/or non-steroidal anti-inflammatory drugs in the last month.
(§4) The experimentation was conducted on 100 subjects. […]
(§5) PA was determined by means of light transmission aggregometry according to standard protocols. […] The aggregation was measured at 37°C with a PACKS-4 aggregometer (Helena Laboratories). The curves were recorded for 6 min. The aggregation was measured at a maximum aggregation (maximum PA) and at 5 min (delayed PA). […]

[2] = Stability in gastric fluids (SGF), HPLC; format: in vitro ADME; details: pH=1.6
Method: as §1, §2

[3] = Metabolism in human liver; format: in vitro ADME
Description: Moreover, it has also been determined that the derivatives (B), (C) and (D) are metabolized in human liver, whereas verbascoside (derivative (A)) is stable.

[4] = Stability in fed intestinal fluid (FESSIF), HPLC; format: in vitro ADME; details: fed-state simulated intestinal fluid (FESSIF), pH=5, read-out: FESSIF t1/2
Method: as §1, §2

[5] = Oxidation stability as antioxidant power against the DPPH radical; format: physicochemical; details: 100 µM DPPH in methanol, 15 min in the dark at room temperature, 515 nm
Method: The oxidation stability of the compounds of formula (I) was evaluated as a function of their antioxidant power, determined as the reactivity of the compound against the stable radical 2,2-diphenyl-1-picrylhydrazyl (DPPH) in solution. High reactivity means poor stability under oxidizing conditions.
A 100 µM solution of DPPH in methanol, prepared from a 1 mM solution, then diluted at 1:10 was used for the determination.
The following final dilutions (from a solution in methanol having a double concentration) of the compound of formula (I) to be analyzed were prepared: 500 µg/mL, 100 µg/mL, 50 µg/mL, 10 µg/mL, 5 µg/mL, 2.5 µg/mL, 1 µg/mL, 0.5 µg/mL, 0.1 µg/mL, 0.05 µg/mL, 0 µg/mL.
500 µl of the compound to be tested at a certain concentration and 500 µl of DPPH were placed in a cuvette, they were all mixed and incubated in the dark at room temperature for 15 min.
The solution was analyzed with a spectrophotometer at a wavelength of 515 nm (methanol as white).
The color in the cuvettes varies from violet (DPPH without compound of formula (I)) to straw-yellow (DPPH with maximum inhibitory concentration of the compound of formula (I)).
The percent inhibition of the radical reaction is defined as: [(Absmax(DPPHalone)−Abs(DPPH+compound))/Absmax] × 100. [formula] […]

[6] = Stability in fasted intestinal fluid (FASSIF), HPLC; format: in vitro ADME; details: pH=6.5
Method: as §1, §2

[7] = tested on: platelet aggregation (PA); experiment: Phase II study: arachidonic acid-induced platelet aggregation by light transmission aggregometry; format: in vivo, human; details: platelets stimulated with 1 µM AA
Method: as §3, §4, §5

SMILES: C[C@@H]1O[C@@H](O[C@@H]2[C@@H](O)[C@H](OCCc3ccc(O)c(O)c3)O[C@H](CO)[C@H]2OC(=O)/C=C/c2ccc(O)c(O)c2)[C@H](O)[C@H](O)[C@H]1O [(A), Verbascoside]
- Blood t1/2 (Stability in blood, HPLC): stable
- ADP-induced maximum PA ([1]; after 2 weeks of 50 mg/day, time 0 value 58±8%, p=0.5): 56±9%
- ADP-induced maximum PA ([1]; after 2 weeks of 100 mg/day, time 0 value 60±12%, p<0.01): 49±15%
- SGF t1/2 [2]: STABLE
- metabolized in human liver [3]: stable
- half-life [4]: > 24 h
- Inhibitory activity (IC50) [5]: 2 µg/mL
- FASSIF t1/2 [6]: stable
- Arachidonic acid-induced maximum PA ([7]; after 2 weeks of 50 mg/day, time 0 value 50±9%, p=0.4): 48±10%
- Arachidonic acid-induced maximum PA ([7]; after 2 weeks of 100 mg/day, time 0 value 51±13%, p<0.01): 39±15%
